We go through one molecule from patent publication US12258609B2, “Method for producing glycerides of hydroxycarboxylic acids” (KetoLipix Therapeutics GmbH, priority 2019, dated 2025).

Each structure is given as a SMILES string.

The test system of data set [1] is Panzytrat® 40,000 (pancreatin).
Procedure: (§1) For the cleavage experiments under near-body conditions two media are investigated: • FaSSGF, which simulates the stomach • FaSSIF, which simulates the intestinal tract
In addition, in some experiments porcine pancreas is added (Panzytrat® 40,000, Fa. Allergan).
Cleavage with Gastric Medium: FaSSGF Medium • A so-called FaSSGF medium is prepared according to the manufacturer's specifications from the commercially available corresponding composition (available from Biorelevant, Ltd., Great Britain). • The resulting sample is divided into two batches of equal size. 10 wt.-% of the ternary glyceride mixture based on mono-, di- and triglycerides of 3-hydroxybutyric acid, as described hereinabove, is dissolved in each FaSSGF medium and left in a water bath at 35° C. for 24 hours.
Data set [2] concerns porcine pancreatic lipase type II (PPL type II). Particulars: pH 6.5.
Procedure: Further Cleavage with Bowl Medium: FaSSIF Medium • The FaSSIF medium is prepared according to the previous test according to the manufacturer's instructions. • The resulting sample is divided into two batches of equal size. 10 wt.-% of the ternary glyceride mixture of mono-, di- and triglycerides of 3-hydroxybutyric acids according to the invention is dissolved in each FaSSIF medium and left in a water bath at 35° C. for 24 hours.
For data set [3] the following is noted: even if several grams are taken; acid and its salts; cited from earlier work.
The test system of data set [4] is Panzytrat® 40,000 (pancreatin). Description: Cleavage experiments with and without Panzytrat 40,000 in FaSSIF medium (simulates the intestinal tract, pH 6.5).
Procedure: as §1
Both media are from the company Biorelevant®, Ltd. in Great Britain. In addition, in some experiments porcine pancreas is added (Panzytrat® 40,000, Fa. Allergan).
Cleavage with Bowl Medium: FaSSIF Medium • The FaSSIF medium is prepared according to the manufacturer's instructions (Fa. Biorelevant, Ltd., Great Britain). • The sample obtained is divided into two equally sized preparations. 10 wt.-% of the aforementioned glyceride mixture based on a mixture of mono-, di- and triglycerides of 3-hydroxybutyric acids is dissolved in each FaSSIF medium and left in a water bath at 35° C. for 24 hours.

As to `CC(O)CC(=O)O` (stereo not drawn) [3-BHB-FS, 3-hydroxybutyric acid], the before splitting in data set [1] (0 h) is given as 0.43 % area. For the same molecule, the “share in chromatogram, before splitting” value in data set [1] (0 h, 10 wt.-%, pH 1.6) is listed as 0.43 % area. Further, the “share in chromatogram, FaSSGF o.P. 24 h, 35° C.” value in data set [1] (24 h, 10 wt.-%, pH 1.6) worked out at 26.21 % area. The “change of content in FaSSGF medium” value in data set [1] (pH 1.6) is reported as “strong increase”. The “share in chromatogram, FaSSGF m.P. 24 h, 35° C.” value in data set [1] (pig, 24 h, 10 wt.-%, pH 1.6) turned out to be 18.85 % area. Moreover, the before splitting 0 h was 0.04% in data set [2] (0 h, 10 wt.-%) and 0.04 in data set [4] (the 13th table, FaSSIF medium, 0 h, in %). In data set [2] (24 h, 10 wt.-%), this molecule returned a without enzyme 24 h, 35° C. of 0.02%. Besides, the “change of content in FaSSIF medium with porcine pancreatic lipase” value in data set [2] was “slight increase”. The molecule further returned a with enzyme, 24 h, 35° C. in data set [2] (pig, 24 h, 10 wt.-%) of 1.79%. In data set [3], the duration of ketosis result is recorded as “about three to four”. The “conversion or cleavage, free acid formed” value in data set [4] (FaSSIF conditions using Panzytrat) is listed as 2.6%. Further, the “change of content in FaSSIF medium” value in data set [4] (FaSSIF, pH 6.5, 35° C., 24 hours, with and without pancreatin) is “slight increase”. Further, in data set [4] (the 11th table, FaSSIF (bowel, pH = 6.5), 0 h), the “share in chromatogram, FaSSIF 0 h, Start” value is listed as 0.04 % area. In data set [4] (the 11th table, FaSSIF (bowel, pH = 6.5), with Panzytrat, 24 h, 35° C.), the “share in chromatogram, FaSSIF m.P. 24 h, 35° C.” value was 2.60 % area. Besides, the “share in chromatogram, FaSSIF o.P. 24 h, 35° C.” value in data set [4] (the 11th table, FaSSIF (bowel, pH = 6.5), without Panzytrat, 24 h, 35° C.) is 0.02 % area. In addition, the “with Panzytrat 24 h, 35° C.” value in data set [4] (the 13th table, FaSSIF medium pH 6.5, 1 wt.-% Panzytrat 40,000, 24 h, 35° C., in %) was 2.60. Also, the “without Panzytrat 24 h, 35° C.” value in data set [4] (the 13th table, FaSSIF medium pH 6.5, without Panzytrat, 24 h, 35° C., in %) is 0.02.
